The record followed here is PMC5107945, “Abscinazole-E3M, a practical inhibitor of abscisic acid 8′-hydroxylase for improving drought tolerance” (Scientific Reports, 2016).

The subject of test [1] is Arabidopsis seed germination. The test is described as follows: Arabidopsis seed germination assay. The class given is in vivo, Arabidopsis (Columbia accession). The procedure:
Figure 3 Effects of (−)-Abz-T compounds on Arabidopsis seed germination compared with that of (−)-Abz-E2B. Seed germination rates in the presence of 0.1 μM ABA and the indicated concentrations of azole inhibitors at a time when the germination rate of plants treated only with ABA was 80% (n = 3; error bars represent s.d.). Compound 6 is also referred to as Abz-E3M.
For the Arabidopsis seed germination assay, 25 to 40 seeds (Columbia accession) were sterilised successively by soaking in 70% EtOH for 30 min and reagent-grade EtOH for 1 min. They were then soaked in distilled water and incubated in the darkness at 5 °C for 3 d. The stratified seeds were then soaked in 100 μL of a test medium liquid agar in 96-well plates and allowed to germinate under continuous illumination at 22 or 30 °C. In these assays, we used the classic definition of radical emergence for seed germination. All of the assays were conducted at least three times.

Test [2] concerns Arabidopsis drought tolerance. As to the kind of experiment: Arabidopsis drought tolerance analysis. Type of test: in vivo. Particulars: 50 μM spray, water withheld 12 days, then rehydrated. The procedure:
(§1) The effects of (-)-Abz-[…] were also determined relative to stomatal apertures. Arabidopsis grown in soil pots underwent moderate drought stress under the optimal growth conditions of 22 °C and 60% relative humidity. Under these growth conditions, the leaf surface temperature of the mock-treated controls was 19.5 °C, which was lower than the surrounding atmospheric temperature because of transpirational water loss (Fig. 6a,b)[30]. […] Finally, we examined the effects of (-)-Abz-[…] on drought tolerance under more practical conditions. Three-week-old Arabidopsis were sprayed with an aqueous solution containing 50 μM (-)-Abz-[…]. Water was not supplied for 12 days, and then the plants were rehydrated. […] We also tested the effects of (-)-Abz-[…] on a monocot crop, maize, to evaluate whether (-)-Abz-[…] affected stomatal movement and enhanced ABA response across plant species. […] Thus, the effects of (-)-Abz-[…] were not restricted to the model plant Arabidopsis. Figure 6 Effects of (-)-Abz-[…] on Arabidopsis drought tolerance. (a,b) Three-week-old plants were treated with 50 μM of (-)-Abz-[…] and incubated overnight at 22 °C with 60% relative humidity. Thermal images of plants were obtained using a thermal imaging camera ([…], Nippon Avionics Co., Ltd.), and the average temperatures on leaf surfaces were determined with NS9200 software (n = 5, error bars represent s.d.). […]

Test [3] deals with ABA-responsive genes ZmLEA, Zm.12309.1.S and ZmCOR410. As to the kind of experiment: qRT-PCR of ABA-responsive genes in maize. Type of test: in vivo, Maize (cv. Gold rush). Particulars: maize 2-week-old seedlings, roots dipped in 100 μM overnight, aerial shoot tissues. The procedure:
The effects of (-)-Abz-[…] were also determined relative to stomatal apertures. Arabidopsis grown in soil pots underwent moderate drought stress under the optimal growth conditions of 22 °C and 60% relative humidity. Under these growth conditions, the leaf surface temperature of the mock-treated controls was 19.5 °C, which was lower than the surrounding atmospheric temperature because of transpirational water loss (Fig. 6a,b)[30]. […] Finally, we examined the effects of (-)-Abz-[…] on drought tolerance under more practical conditions. Three-week-old Arabidopsis were sprayed with an aqueous solution containing 50 μM (-)-Abz-[…]. Water was not supplied for 12 days, and then the plants were rehydrated. […] We also tested the effects of (-)-Abz-[…] on a monocot crop, maize, to evaluate whether (-)-Abz-[…] affected stomatal movement and enhanced ABA response across plant species. […] Thus, the effects of (-)-Abz-[…] were not restricted to the model plant Arabidopsis. Figure 7 Effects of (-)-Abz-[…] on maize. (a) Thermal images of the leaf surface temperatures of (-)-Abz-[…]-treated maize plants. (b) Leaf surface temperatures of (-)-Abz-[…]-treated maize plants. The stomatal conductance (c) and transpiration rate (d) in (-)-Abz-[…]-treated maize at different light intensities. […] Values are means with s.d. (n = 4 for leaf surface temperature, n = 3 for stomatal conductance and transpiration rate). […]
On the technique in general: Real-time PCR tracks product formation cycle by cycle.

Test [4] relates to Arabidopsis stomata / leaf surface temperature. As to the kind of experiment: Thermal imaging and stomatal aperture in Arabidopsis. Type of test: in vivo. The protocol:
The effects of (-)-Abz-[…] were also determined relative to stomatal apertures. Arabidopsis grown in soil pots underwent moderate drought stress under the optimal growth conditions of 22 °C and 60% relative humidity. Under these growth conditions, the leaf surface temperature of the mock-treated controls was 19.5 °C, which was lower than the surrounding atmospheric temperature because of transpirational water loss (Fig. 6a,b)[30]. […] Finally, we examined the effects of (-)-Abz-[…] on drought tolerance under more practical conditions. Three-week-old Arabidopsis were sprayed with an aqueous solution containing 50 μM (-)-Abz-[…]. Water was not supplied for 12 days, and then the plants were rehydrated. […] We also tested the effects of (-)-Abz-[…] on a monocot crop, maize, to evaluate whether (-)-Abz-[…] affected stomatal movement and enhanced ABA response across plant species. […] Thus, the effects of (-)-Abz-[…] were not restricted to the model plant Arabidopsis. Figure 6 Effects of (-)-Abz-[…] on Arabidopsis drought tolerance. (a,b) Three-week-old plants were treated with 50 μM of (-)-Abz-[…] and incubated overnight at 22 °C with 60% relative humidity. Thermal images of plants were obtained using a thermal imaging camera ([…], Nippon Avionics Co., Ltd.), and the average temperatures on leaf surfaces were determined with NS9200 software (n = 5, error bars represent s.d.). Representative images are shown in (a). (c) Stomatal apertures after the application of 50 μM (-)-Abz-[…]. After an overnight incubation, plants were placed at 22 °C with ~90% relative humidity for 1 h. Stomatal images were obtained using Suzuki's universal micro-printing method. […] (d) Effects of (-)-Abz-[…] on endogenous ABA levels. Four-week old plants grown in soil pots were treated with 50 μM (-)-Abz-[…], and leaves were harvested after an overnight incubation. Values are means with s.d. (n = 6). (e) Four-week-old plants were subjected to drought stress by withholding water. […]

Another test deals with endogenous ABA level. The test is described as follows: Endogenous ABA levels in Arabidopsis. Type of test: in vivo. Particulars: Arabidopsis four-week-old plants, 50 μM, overnight. The procedure:
as §1

For abscinazole-E3M [(−)-6], the “Effect on Arabidopsis seed germination under high temperature conditions” value in test [1] (30 °C, thermoinhibition, Fig. S3) was “inhibited Arabidopsis seed germination”. The “Potency in enhancing ABA's effects on seed germination relative to (−)-Abz-E2B” value in test [1] (co-treatment with ABA (0.1 μM)) stood at 10 fold. For the same substance, the “Effect on ABA's inhibition of Arabidopsis seed germination” value in test [1] (in the presence of 0.1 μM ABA, Fig. 3) is “enhanced the effects of ABA”. In addition, the “Drought tolerance and survival” value in test [2] is “induced significant drought tolerance and increased the survival rate”. For the same substance, the “Expression of ABA-responsive genes ZmLEA, Zm.12309.1.S and ZmCOR410” value in test [3] was “induced the expression of ABA-responsive genes”. In addition, the Transpirational water loss result in test [4] (50 μM spray, overnight) is on record as “reduced the water loss”. Also, in test [4] (50 μM spray, overnight, 22 °C, 60% relative humidity), the Leaf surface temperature entry is on record as “increased leaf temperatures”. Also, the Stomatal aperture entry in test [4] (50 μM, overnight then ~90% relative humidity 1 h) was “led to stomatal closure”. Besides, the “Endogenous ABA content” value in the test on endogenous ABA level is on record as “significantly increase the ABA content”.
